TGI data for twelve compounds are collected here from PubChem BioAssay (NCI).

Test in all cases: inhibition of tumour cell growth, NCI panel, 48 h
The subject of assay [1] is HCT-15 colon.
The subject of assay [2] is SW-620 colon.
The subject of assay [3] is CCRF-CEM leukemia.
For assay [4], the system named is UACC-62 melanoma.
The test system of assay [5] is HL-60(TB) leukemia.
Assay [6] relates to HS 578T breast.
For assay [7], the system named is SR leukemia.
Assay [8] relates to MDA-MB-435.
Assay [9] concerns SK-OV-3 ovarian.
The subject of assay [10] is SK-MEL-5 melanoma.

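Results reflect a 48-hour exposure of cells in 96-well plates to compound at five concentrations. TGI marks complete inhibition of growth.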

In the case of `CC(C)(C)N1Cc2ccccc2/C(=C/Sc2ccccc2)C1=O`, the TGI in assay [1] was 37 µM; in assay [2], 27.4 µM; in [3], more than 100 µM; in assay [4], 24.3 µM; in [5] it was 39.8 µM; in assay [6] it was 41.2 µM. In addition, the TGI in [7] is more than 39.4 µM; in [8] it was 20.1 µM; in assay [9], 31.2 µM; in assay [10] it was 20.2 µM.
Turning to `Cc1ccc(O)c(C2=NNC(c3cccc(Br)c3)C2)c1` (stereo not given), the TGI in assay [1] is 35.1 µM; in [2], more than 100 µM; in [3] it was more than 100 µM; in assay [4] it was more than 100 µM; in assay [5], more than 100 µM; in assay [6], more than 100 µM. In addition, the TGI is more than 100 µM in assay [7], 46.8 µM in assay [8], more than 100 µM in assay [9] and more than 100 µM in [10].
In the case of `O=C(NCCNCCO)N/N=C/c1ccc(Cl)cc1`, the TGI in assay [1], in assay [2], in assay [3], in assay [4], in assay [5] and in [6] was more than 100 µM throughout. In addition, the TGI in assay [7], in assay [8], in [9] and in [10] was more than 100 µM each time.
As to `CN1C2CC(=O)CC1[C@@H]1OC(c3ccccc3)O[C@H]21` (stereo not given in full), the TGI in [1], in assay [2], in assay [3], in assay [4], in assay [5] and in assay [6] was more than 100 µM throughout. Further, the TGI in assay [7], in assay [8], in assay [9] and in assay [10] was more than 100 µM each time.
As for `CCN(CC)CCCNc1ccc2nnn3c4ccc(O)cc4c(=O)c1c23`, the TGI in assay [1] was found to be 19.4 µM; in assay [2], 18.4 µM; in assay [3], 39.8 µM; in assay [4], 30.9 µM; in assay [5], 33.2 µM; in assay [6], 31 µM. The TGI in [7] was determined as 21.8 µM; in assay [8], 22.1 µM; in assay [9] it was 22.1 µM; in assay [10], 22.6 µM.
For `O=C(Nc1cccc(-c2cn3ccccc3n2)c1)c1ccncc1`, the TGI was more than 100 µM in assay [1]; more than 100 µM in assay [2]; 82.5 µM in assay [3]; 42.2 µM in assay [4]; 45.8 µM in [5]; more than 100 µM in [6]. In addition, the TGI in assay [7] was 71.7 µM; in assay [8], more than 100 µM; in assay [9] it was more than 100 µM; in assay [10], 71.4 µM.
Turning to `O=C1C=CC(=O)c2ncccc21`, the TGI is 5.72 µM in assay [1]; 4.62 µM in assay [2]; 3.29 µM in assay [3]; 9.3 µM in assay [4]; 2.02 µM in assay [5]; 56.4 µM in assay [6]. In addition, the TGI in [7] was determined as 5.88 µM; in assay [8] it was 18.5 µM; in assay [9] it was 37.2 µM; in [10], 18 µM.
As to `CCOP(=O)(OCC)C(Nc1ccc(F)cc1)c1cccc([N+](=O)[O-])c1` (stereo not given), the TGI in assay [1], in [2], in assay [3], in assay [4], in assay [5] and in assay [6] was more than 100 µM each time. The TGI in assay [7], in assay [8], in assay [9] and in assay [10] was more than 100 µM in each case.
Consider `CC1(C)C2CC(c3ccncc3)ON2C(C)(C)N1O` (stereo not given), for which the TGI in assay [1], in assay [2], in assay [3], in [4], in [5] and in [6] was more than 100 µM in each case. Besides, the TGI in assay [7], in assay [8], in [9] and in assay [10] was more than 100 µM throughout.
Consider `O=C(/C=C/c1ccc([N+](=O)[O-])cc1)c1nc2ccccc2[nH]1`, for which the TGI is more than 100 µM in [1]; more than 100 µM in assay [2]; more than 100 µM in assay [3]; 63 µM in [4]; more than 29.9 µM in assay [5]; more than 100 µM in assay [6]. The TGI is 11.3 µM in assay [7], more than 100 µM in assay [8], more than 100 µM in assay [9] and more than 100 µM in [10].
Consider `COC1/C=C/C(C)C(C(C)C(OC)C(C)CCC(=O)C(C)C(CCC(=O)O)OC)OC(=O)/C=C/C=C(\C)CC(OC)CC2=CC(=O)O[C@@H](C(C)C(OC)CC(OC)/C=C/C(C)C(OC)C1)[C@H]2O` (stereo not given in full), for which the TGI was more than 5 µM in assay [1]; more than 5 µM in assay [2]; more than 1.58 µM in [3]; more than 4.31 µM in assay [4]; 1 µM in assay [5]; more than 5 µM in [6]. Moreover, the TGI in [7] is more than 4.14 µM; in assay [8], more than 5 µM; in [9] it was 4.06 µM; in assay [10], 2.88 µM.
Turning to `CC1(C)[C@@H]2C[C@H]1c1cnc(-c3ccccn3)cc1C2[C@@H]1c2cc(-c3ccccn3)ncc2[C@@H]2C[C@H]1C2(C)C` (stereo not given in full), the TGI in assay [1], in [2], in assay [3], in assay [4], in [5] and in assay [6] was more than 100 µM in each case. Further, the TGI in [7], in assay [8], in assay [9] and in [10] was more than 100 µM in each case.
